System: horse plasma
Experiment: Thrombelastography of horse plasma, coagulation and fibrinolysis study (with tPA)
Type: biochemical
Settings: for % TTG Loss / MRL / MRTG / TMRL / TMRTG / TTG / CGT / CLS / CLT: CORM-2 100 μM
Experimental: Blood was collected directly into plastic tubes containing 0.105 M sodium citrate (9:1, v/v) from the jugular vein of ten clinically normal grade and American Quarter Horse mares between 400 and 600 kg. Three additional horses to be subsequently described with acute gastrointestinal disease had blood samples similarly collected. The mares were group-housed in corrals. Plasma was obtained by centrifugation of citrated whole blood at 3000×g for 15 minutes and immediately frozen at −80° C. Plasma was subsequently shipped on dry ice and stored at −80° C. until thrombelastographic analysis.
In the second series of experiments assessing both coagulation and fibrinolysis, sample composition consisted of 316 μl of plasma; 10 μl of tissue factor reagent (0.1% final concentration), 10 μl of tissue type plasminogen activator (tPA, 580 Genentech, Inc., San Francisco, Calif., USA; 300 IU/ml final concentration); 3.6 μl of dH2O, or 3.6 μl dH2O containing PHA (10 mM final concentration), or 3.6 μl of CORM-2 (100 μM final concentration) and 20 μl of 200 mM CaCl2. The effects of converting heme groups to either a carboxyheme or metheme in horse plasma during clot growth and fibrinolysis were assessed as subsequently described.
Plasma sample mixtures were placed in a disposable cup in a computer-controlled Thrombelastograph® hemostasis system (Model 5000, Haemoscope Corp., Niles, Ill., USA), with addition of CaCl2 as the last step to initiate clotting. Data were collected at 37° C. for 15 min in the first series of experiments involving coagulation alone, whereas in the experiments involving fibrinolysis data were collected until clot lysis time was observed. Elastic modulus-based parameters previously described were determined (Nielsen et al., 2009, Blood Coagul Fibrinolysis, 20: 377-380; Nielsen et al., 2009, Blood Coagul Fibrinolysis, 20: 448-455). The nomenclature used to describe these phenomena is as follows:
Time to maximum rate of thrombus generation (TMRTG): This is the time interval (min) observed prior to maximum speed of clot growth.
Maximum rate of thrombus generation (MRTG): This is the maximum velocity of clot growth observed (dynes/cm^2/sec).
Total Thrombus Generation (TTG): This is the total area under the velocity curve during clot growth (dynes/cm^2), representing the amount of clot strength generated during clot growth.
Time to maximum rate of lysis (TMRL): This is the time interval (min) measured from the time of maximum strength to the time when the velocity of clot disintegration is maximal.
Maximum Rate of Lysis (MRL): This is the maximum velocity of clot disintegration observed (-dynes/cm^2/sec).
Clot growth time (CGT): This is the time from clot amplitude of 2 mm [102 dynes/cm^2] until maximum strength is achieved, in min.
Clot lifespan (CLS): This is the sum of CGT and CLT.
Thrombelastographic data are presented as mean±SD or as individual animal parameter values as appropriate. The effects of addition of CORM-2 and PHA on coagulation and fibrinolytic kinetic parameters were analyzed with one way repeated measures analysis of variance, utilizing Holm-Sidak post hoc test (SigmaStat 3.1, Systat Software, Inc., San Jose, Calif., USA) as appropriate. A P value of <0.05 was considered significant.

[1] = horse with lethal enteritis, tPA
[2] = horse with mild disease, tPA, PHA 10 mM
[3] = horse with moderate disease, tPA, PHA 10 mM
[4] = horse with moderate enteritis, tPA
[5] = normal horses, tPA 300 IU/ml, PHA 10 mM

Compound: [C-]#[O+].[C-]#[O+].[C-]#[O+].[C-]#[O+].[C-]#[O+].[C-]#[O+].[Cl][Ru][Cl].[Cl][Ru][Cl] [CORM-2, tricarbonyldichlororuthenium (II) dimer]
- % TTG Loss (horse with lethal disease, tPA): 67.4%
- MRL (horse with lethal disease, tPA): 0.1 -dynes/cm^2/sec
- MRTG (horse with lethal disease, tPA): 2.8 dynes/cm^2/sec
- TMRL (horse with lethal disease, tPA): 65.2 min
- TMRTG (horse with lethal disease, tPA): 4.1 min
- TTG (horse with lethal disease, tPA): 92 dynes/cm^2
- effect on MRL vs control sample [1]: did not affect
- increase in MRTG vs control sample [1]: 12%
- increase in TMRL vs control sample [1]: 8 fold
- increase in TTG vs control sample [1]: 73%
- % TTG Loss [2]: 50.7%
- MRL [2]: 0.2 -dynes/cm^2/sec
- MRTG [2]: 6.8 dynes/cm^2/sec
- TMRL [2]: 122.8 min
- TMRTG [2]: 3.2 min
- TTG [2]: 274 dynes/cm^2
- decrease in MRL vs control sample (horse with mild enteritis, tPA): 88%
- decrease in MRTG vs control sample (horse with mild enteritis, tPA): 3%
- increase in TMRL vs control sample (horse with mild enteritis, tPA): 46 fold
- increase in TTG vs control sample (horse with mild enteritis, tPA): 77%
- % TTG Loss [3]: 25.8%
- MRL [3]: 0.4 -dynes/cm^2/sec
- MRTG [3]: 7.2 dynes/cm^2/sec
- TMRL [3]: 62.9 min
- TMRTG [3]: 2.5 min
- TTG [3]: 198 dynes/cm^2
- decrease in MRL vs control sample [4]: 83%
- increase in MRTG vs control sample [4]: 38%
- increase in TMRL vs control sample [4]: 55 fold
- increase in TTG vs control sample [4]: 160%
- decrease in CGT vs control (normal horses, tPA): 26%
- decrease in CLS (clot lifespan) vs control (normal horses, tPA): 77%
- decrease in CLT vs control (normal horses, tPA): 83%
- decrease in MRL vs control (normal horses, tPA): 27%
- increase (prolongation) in TMRL vs control (normal horses, tPA): 113%
- increase in CGT vs control (normal horses, tPA): 106%
- increase in CLS vs control (normal horses, tPA): 154%
- increase in CLT vs control (normal horses, tPA): 160%
- increase in TTG vs control (normal horses, tPA): 35%
- CGT [5]: 6.4 ± 1.7 min
- CLS [5]: 77.1 ± 23.8
- CLT [5]: 70.6 ± 23.0 min
- MRL [5]: 1.1 ± 0.5 -dynes/cm^2/sec
- MRTG [5]: 13.2 ± 3.4 dynes/cm^2/sec
- TMRL [5]: 26.2 ± 17.3 min
- TMRTG [5]: 2.7 ± 0.4 min
- TTG [5]: 312 ± 70 dynes/cm^2

Compound: ONc1ccccc1 [PHA, phenylhydroxylamine]
- % TTG Loss [2]: 100%
- MRL [2]: 2.6 -dynes/cm^2/sec
- MRTG [2]: 4.0 dynes/cm^2/sec
- TMRL [2]: 2.4 min
- TMRTG [2]: 3.4 min
- TTG [2]: 100 dynes/cm^2
- decrease in MRTG vs control sample (horse with mild enteritis, tPA): 42%
- decrease in TTG vs control sample (horse with mild enteritis, tPA): 28%
- difference in TMRL between control and exposed sample (horse with mild enteritis, tPA): 8%
- increase in MRL vs control sample (horse with mild enteritis, tPA): 53%
- % TTG Loss [3]: 100%
- MRL [3]: 2.3 -dynes/cm^2/sec
- MRTG [3]: 4.5 dynes/cm^2/sec
- TMRL [3]: 2.8 min
- TMRTG [3]: 2.8 min
- TTG [3]: 94 dynes/cm^2
- change in MRL vs control sample [4]: essentially no change
- decrease in MRTG vs control sample [4]: 13%
- increase in TMRL vs control sample [4]: 64%
- increase in TTG vs control sample [4]: 23%
- decrease in CLS (clot lifespan) vs control (normal horses, tPA): 77%
- decrease in MRTG vs control (normal horses, tPA): 55%
- decrease in TMRL vs control (normal horses, tPA): 84%
- increase in MRL vs control (normal horses, tPA): 133%
- CGT [5]: 2.3 ± 0.5 min
- CLS [5]: 6.9 ± 1.4
- CLT [5]: 4.6 ± 1.3 min
- MRL [5]: 3.5 ± 0.8 -dynes/cm^2/sec
- MRTG [5]: 5.6 ± 1.3 dynes/cm^2/sec
- TMRL [5]: 2.0 ± 0.2 min
- TMRTG [5]: 3.2 ± 0.6 min
- TTG [5]: 118 ± 26 dynes/cm^2

Source: patent publication US20140242707A1, “Compositions and Methods for Diagnosing Hypercoagulability and Hypocoagulability” (Philadelphia Health & Education Corporation d/b/a Drexel …, priority 2011, published 2014)
